Assay results published in patent US8632825B2, “Anti-tumoural effects of cannabinoid combinations” (GW Pharma Limited, priority 2008, dated 2014).
Where a SMILES comes first, the peptide text is derived from it. The star is where a group is joined. Cbz = O=C(OCc1ccccc1)*; CH2F = FC*

Experiments:
[1] = tested on: human U87 MG astrocytoma cells; experiment: Cell viability of human U87 MG astrocytoma cells in culture; assay type: cell-based; settings: U-87 MG, pure cannabinoids
Protocol: Tetrahydrocannabinol (THC) and cannabidiol (CBD) in the form of cannabis plant extracts were dissolved in ethanol to a concentration of 100 mM this was stored at −20° C. until required.
Before use the cannabis plant extracts were further diluted to the desired concentration, ensuring that the concentration of ethanol was below 0.001%.
U87 human glioma cells were used throughout this experiment. The cells were maintained at 37° C. in a humidified atmosphere with 5% CO2 and 95% air.
Cells were cultured in a 75 cm^2 culture flask in Dulbecco's Modified Eagle Medium (DMEM), which had been supplemented with 4 mM L-glutamine, 100 units/ml penicillin, […], 1% sodium pyruvate, 1% non-essential amino acids and 10% heat-inactivated fetal bovine serum.
The viability of the human U87 MG astrocytoma cells were examined at various cannabinoid concentrations. The THC and CBD extracts were compared against pure THC and CBD.
The methods used were as described in Example 1 above.

[2] = tested on: Human U87 MG astrocytoma cells xenografted to nude mice; experiment: Tumour volume of U87 MG xenografts in nude mice; assay type: in vivo; settings: following 15 days of treatment, 15 mg/kg per day peritumourally
Protocol: Human U87 MG astrocytoma cells were xenografted to nude mice and the test compounds were injected peritumourally at a concentration of 15 mg/kg per day.

U87MG cells = experiment: Induced cell death with ATG1 silencing or pan-caspase inhibition; settings: pan-caspase inhibitor; FIG. 3c

Structure (SMILES) | IC50 [1] | Tumour volume relative to zero time [2] | induced cell death (U87MG cells)
C=C(C)[C@@H]1CCC(C)=C[C@H]1c1c(O)cc(CCCCC)cc1O [CBD, cannabidiol] | 0.47 µM | – | –
CCCCCc1cc(O)c2c(c1)OC(C)(C)[C@@H]1CCC(C)=C[C@@H]21 [THC, tetrahydrocannabinol] | 0.37 µM | 5.1 ± 0.4 | –
CC(NC(=O)C(NC(=O)OCc1ccccc1)C(C)C)C(=O)NC(CC(=O)O)C(=O)CF (stereo not drawn) [Z-VAD] (Cbz-Val-Ala-Asp-CH2F; configuration not given here) | – | – | prevent induced cell death
